According to ChEMBL document CHEMBL2413072, “Synthesis and in vitro anticancer studies of novel C-2 arylidene congeners of lantadenes” (2013):

What was measured:
Format in all cases: functional
NCI-H322M = assay: Growth inhibition of human NCI-H322M cells by sulforhodamine B assay
MOLT-4 [1] = assay: Growth inhibition of human MOLT4 cells by sulforhodamine B assay
SK-MEL-5 [2] = assay: Growth inhibition of human SK-MEL-5 cells assessed as cell growth at 10^-8 M by sulforhodamine B assay; conditions: read-out: Activity
U-251 = assay: Growth inhibition of human U251 cells assessed as cell growth at 10^-8 M by sulforhodamine B assay; conditions: read-out: Activity
LOX IMVI = assay: Growth inhibition of human LOXIMVI cells assessed as cell growth at 10^-8 M by sulforhodamine B assay; conditions: read-out: Activity
SW-620 = assay: Growth inhibition of human SW620 cells assessed as cell growth at 10^-8 M by sulforhodamine B assay; conditions: read-out: Activity
HCT-15 [3] = assay: Growth inhibition of human HCT15 cells assessed as cell growth at 10^-8 M by sulforhodamine B assay; conditions: read-out: Activity
HOP-92 [4] = assay: Growth inhibition of human HOP92 cells assessed as cell growth at 10^-8 M by sulforhodamine B assay; conditions: read-out: Activity
UO-31 [5] = assay: Growth inhibition of human UO31 cells by sulforhodamine B assay
SN12C = assay: Growth inhibition of human SN12C cells by sulforhodamine B assay
CAKI-1 [6] = assay: Growth inhibition of human CAKI-1 cells by sulforhodamine B assay
SK-MEL-5 [7] = assay: Growth inhibition of human SK-MEL-5 cells by sulforhodamine B assay
SK-MEL-28 = assay: Growth inhibition of human SK-MEL-28 cells by sulforhodamine B assay
Malme-3M [8] = assay: Growth inhibition of human MALME-3M cells by sulforhodamine B assay
PC-3 = assay: Growth inhibition of human PC3 cells assessed as cell growth at 10^-4 M by sulforhodamine B assay; conditions: read-out: Activity
UO-31 [9] = assay: Growth inhibition of human UO31 cells assessed as cell growth at 10^-4 M by sulforhodamine B assay; conditions: read-out: Activity
ACHN = assay: Growth inhibition of human ACHN cells assessed as cell growth at 10^-4 M by sulforhodamine B assay; conditions: read-out: Activity
Malme-3M [10] = assay: Growth inhibition of human MALME-3M cells assessed as cell growth at 10^-4 M by sulforhodamine B assay; conditions: read-out: Activity
NCI-H460 [11] = assay: Growth inhibition of human NCI-H460 cells assessed as cell growth at 10^-4 M by sulforhodamine B assay; conditions: read-out: Activity
NCI-H226 = assay: Growth inhibition of human NCI-H226 cells assessed as cell growth at 10^-4 M by sulforhodamine B assay; conditions: read-out: Activity
HOP-62 [12] = assay: Growth inhibition of human HOP62 cells assessed as cell growth at 10^-4 M by sulforhodamine B assay; conditions: read-out: Activity
DU-145 = assay: Growth inhibition of human DU145 cells assessed as cell growth at 10^-6 M by sulforhodamine B assay; conditions: read-out: Activity
CAKI-1 [13] = assay: Growth inhibition of human CAKI-1 cells assessed as cell growth at 10^-6 M by sulforhodamine B assay; conditions: read-out: Activity
786-0 = assay: Growth inhibition of human 786-0 cells assessed as cell growth at 10^-6 M by sulforhodamine B assay; conditions: read-out: Activity
OVCAR-5 = assay: Growth inhibition of human OVCAR5 cells assessed as cell growth at 10^-6 M by sulforhodamine B assay; conditions: read-out: Activity
Malme-3M [14] = assay: Growth inhibition of human MALME-3M cells assessed as cell growth at 10^-6 M by sulforhodamine B assay; conditions: read-out: Activity
SF-295 = assay: Growth inhibition of human SF295 cells assessed as cell growth at 10^-6 M by sulforhodamine B assay; conditions: read-out: Activity
NCI-H460 [15] = assay: Growth inhibition of human NCI-H460 cells assessed as cell growth at 10^-6 M by sulforhodamine B assay; conditions: read-out: Activity
HOP-92 [16] = assay: Growth inhibition of human HOP92 cells assessed as cell growth at 10^-6 M by sulforhodamine B assay; conditions: read-out: Activity
MOLT-4 [17] = assay: Growth inhibition of human MOLT4 cells assessed as cell growth at 10^-6 M by sulforhodamine B assay; conditions: read-out: Activity
MCF7 [18] = assay: Growth inhibition of human MCF7 cells assessed as cell growth at 10^-7 M by sulforhodamine B assay; conditions: read-out: Activity
SK-MEL-2 = assay: Growth inhibition of human SK-MEL-2 cells assessed as cell growth at 10^-7 M by sulforhodamine B assay; conditions: read-out: Activity
SNB-19 = assay: Growth inhibition of human SNB19 cells assessed as cell growth at 10^-7 M by sulforhodamine B assay; conditions: read-out: Activity
SF-268 = assay: Growth inhibition of human SF268 cells assessed as cell growth at 10^-7 M by sulforhodamine B assay; conditions: read-out: Activity
HT-29 = assay: Growth inhibition of human HT-29 cells assessed as cell growth at 10^-7 M by sulforhodamine B assay; conditions: read-out: Activity
HCT-15 [19] = assay: Growth inhibition of human HCT15 cells assessed as cell growth at 10^-7 M by sulforhodamine B assay; conditions: read-out: Activity
[20] = Growth inhibition of human HCC2998 cells assessed as cell growth at 10^-7 M by sulforhodamine B assay; conditions: HCC 2998, read-out: Activity
HOP-62 [21] = assay: Growth inhibition of human HOP62 cells assessed as cell growth at 10^-7 M by sulforhodamine B assay; conditions: read-out: Activity
MCF7 [22] = assay: Growth inhibition of human MCF7 cells assessed as cell growth at 10^-8 M by sulforhodamine B assay; conditions: read-out: Activity
UO-31 [23] = assay: Growth inhibition of human UO31 cells assessed as cell growth at 10^-8 M by sulforhodamine B assay; conditions: read-out: Activity
[24] = read-out: LC50 (the source's name)
[25] = read-out: pLC50 (the source's name) (converted)

## C/C=C(/C)C(=O)O[C@@H]1CC(C)(C)C[C@H]2C3=CC[C@@H]4[C@@]5(C)CCC(=O)C(C)(C)[C@@H]5CC[C@@]4(C)[C@]3(C)CC[C@@]12C(=O)O [LANTADENE A]
NCI-H322M; read-out: GI50
  GI50: 3.94 µM
NCI-H322M; read-out: LC50
  LC50 (50% lethal concentration): > 100 µM
NCI-H322M; read-out: TGI
  TGI: > 100 µM
NCI-H322M; read-out: pGI50 (converted)
  GI50: 3.98 µM
NCI-H322M; read-out: pLC50 (converted)
  LC50 (50% lethal concentration): > 100 µM
NCI-H322M; read-out: pTGI (converted)
  TGI: > 100 µM
MOLT-4 [1]; read-out: GI50
  GI50: 3.34 µM
MOLT-4 [1]; [24]
  CC50: > 100 µM
MOLT-4 [1]; read-out: TGI
  TGI: > 100 µM
MOLT-4 [1]; read-out: pGI50 (converted)
  GI50: 3.31 µM
MOLT-4 [1]; [25]
  CC50: > 100 µM
MOLT-4 [1]; read-out: pTGI (converted)
  TGI: > 100 µM
SK-MEL-5 [2]
  growth at 0.01 µM: 90%
U-251
  growth at 0.01 µM: 98%
LOX IMVI
  growth at 0.01 µM: 96%
SW-620
  growth at 0.01 µM: 100%
HCT-15 [3]
  growth at 0.01 µM: 100%
HOP-92 [4]
  growth at 0.01 µM: 87%
UO-31 [5]; read-out: GI50
  GI50: 3.44 µM
UO-31 [5]; [24]
  CC50: > 100 µM
UO-31 [5]; read-out: TGI
  TGI: > 100 µM
UO-31 [5]; read-out: pGI50 (converted)
  GI50: 3.47 µM
UO-31 [5]; [25]
  CC50: > 100 µM
UO-31 [5]; read-out: pTGI (converted)
  TGI: > 100 µM
SN12C; read-out: GI50
  GI50: 3.47 µM
SN12C; [24]
  CC50: > 100 µM
SN12C; read-out: TGI
  TGI: > 100 µM
SN12C; read-out: pGI50 (converted)
  GI50: 3.47 µM
SN12C; [25]
  CC50: > 100 µM
SN12C; read-out: pTGI (converted)
  TGI: > 100 µM
CAKI-1 [6]; read-out: GI50
  GI50: 3.93 µM
CAKI-1 [6]; [24]
  CC50: > 100 µM
CAKI-1 [6]; read-out: TGI
  TGI: > 100 µM
CAKI-1 [6]; read-out: pGI50 (converted)
  GI50: 3.89 µM
CAKI-1 [6]; [25]
  CC50: > 100 µM
CAKI-1 [6]; read-out: pTGI (converted)
  TGI: > 100 µM
SK-MEL-5 [7]; read-out: GI50
  GI50: 1.22 µM
SK-MEL-5 [7]; [24]
  CC50: > 100 µM
SK-MEL-5 [7]; read-out: TGI
  TGI: 4.3 µM
SK-MEL-5 [7]; read-out: pGI50 (converted)
  GI50: 1.23 µM
SK-MEL-5 [7]; [25]
  CC50: > 100 µM
SK-MEL-5 [7]; read-out: pTGI (converted)
  TGI: 4.27 µM
SK-MEL-28; read-out: GI50
  GI50: 12.8 µM
SK-MEL-28; [24]
  CC50: > 100 µM
SK-MEL-28; read-out: TGI
  TGI: > 100 µM
SK-MEL-28; read-out: pGI50 (converted)
  GI50: 12.9 µM
SK-MEL-28; [25]
  CC50: > 100 µM
SK-MEL-28; read-out: pTGI (converted)
  TGI: > 100 µM
Malme-3M [8]; read-out: GI50
  GI50: 7.91 µM
Malme-3M [8]; [24]
  CC50: > 100 µM
Malme-3M [8]; read-out: TGI
  TGI: > 100 µM
Malme-3M [8]; read-out: pGI50 (converted)
  GI50: 7.94 µM
Malme-3M [8]; [25]
  CC50: > 100 µM
Malme-3M [8]; read-out: pTGI (converted)
  TGI: > 100 µM
PC-3
  growth at 100 µM: 13%
UO-31 [9]
  growth at 100 µM: 6%
ACHN
  growth at 100 µM: 16%
Malme-3M [10]
  growth at 100 µM: 17%
NCI-H460 [11]
  growth at 100 µM: 8%
NCI-H226
  growth at 100 µM: 20%
HOP-62 [12]
  growth at 100 µM: 26%
DU-145
  growth at 1 µM: 102%
CAKI-1 [13]
  growth at 1 µM: 88%
786-0
  growth at 1 µM: 93%
OVCAR-5
  growth at 1 µM: 98%
Malme-3M [14]
  growth at 1 µM: 91%
SF-295
  growth at 1 µM: 88%
NCI-H460 [15]
  growth at 1 µM: 92%
HOP-92 [16]
  growth at 1 µM: 56%
MOLT-4 [17]
  growth at 1 µM: 89%
MCF7 [18]
  growth at 0.1 µM: 90%
SK-MEL-2
  growth at 0.1 µM: 115%
SNB-19
  growth at 0.1 µM: 89%
SF-268
  growth at 0.1 µM: 101%
HT-29
  growth at 0.1 µM: 101%
HCT-15 [19]
  growth at 0.1 µM: 106%
[20]
  growth at 0.1 µM: 108%
HOP-62 [21]
  growth at 0.1 µM: 95%
MCF7 [22]
  growth at 0.01 µM: 94%
UO-31 [23]
  growth at 0.01 µM: 96%
